#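 96-well plates; 48 h exposure; 5 concentrations. Endpoints by linear interpolation between flanking doses. Not reached: highest tested concentration assigned. GI50 is the concentration that inhibits growth by half. TGI is the concentration that stops growth completely.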
# How the values were obtained:
# Test in all cases: NCI-60 cell line screen, 48 h
# [1] = test system: 786-0 renal
# [2] = test system: A498 renal
# [3] = test system: A549 NSCLC
# [4] = test system: ACHN renal
# [5] = test system: BT-549 breast
# [6] = test system: CAKI-1 renal
# [7] = test system: CCRF-CEM leukemia
# [8] = test system: COLO 205 colon
# [9] = test system: DU-145 prostate
# [10] = test system: EKVX NSCLC
# [11] = test system: HCC-2998 colon
# [12] = test system: HCT-116 colon
# [13] = test system: HCT-15 colon
# [14] = test system: HL-60(TB) leukemia
# [15] = test system: HOP-62 NSCLC
# [16] = test system: HOP-92 NSCLC
# [17] = test system: HS 578T breast
# [18] = test system: HT29 colon
# [19] = test system: IGROV1 ovarian
# [20] = test system: K-562 leukemia
# [21] = test system: LOX IMVI melanoma
# [22] = test system: M14 melanoma
# [23] = test system: MALME-3M melanoma
# [24] = test system: MCF7 breast
# [25] = test system: MDA-MB-231 breast
# [26] = test system: MDA-MB-435
# [27] = test system: MOLT-4 leukemia
# [28] = test system: NCI-H226 lung
# [29] = test system: NCI-H23 lung
# [30] = test system: NCI-H460 lung
# [31] = test system: NCI-H522 lung
# [32] = test system: NCI/ADR-RES ovarian
# [33] = test system: OVCAR-3 ovarian
# [34] = test system: OVCAR-4 ovarian
# [35] = test system: OVCAR-5 ovarian
# [36] = test system: OVCAR-8 ovarian
# [37] = test system: PC-3 prostate
# [38] = test system: RPMI-8226 leukemia
# [39] = test system: RXF 393 renal
# [40] = test system: SF-268 CNS
# [41] = test system: SF-295 CNS
# [42] = test system: SF-539 CNS
# [43] = test system: SK-MEL-2 melanoma
# [44] = test system: SK-MEL-28 melanoma
# [45] = test system: SK-MEL-5 melanoma
# [46] = test system: SK-OV-3 ovarian
# [47] = test system: SN12C renal
# [48] = test system: SNB-19 CNS
# [49] = test system: SNB-75 CNS
# [50] = test system: SR leukemia
# [51] = test system: SW-620 colon
# [52] = test system: TK-10 renal
# [53] = test system: U251 CNS
# [54] = test system: UACC-257 melanoma
# [55] = test system: UACC-62 melanoma
# [56] = test system: UO-31 renal
smiles,measurement,setting,value
C=C1C(=O)O[C@@H]2/C=C(/C)C3=CC(=O)[C@@](C)(C[C@H](OC(=O)/C(C)=C\C)[C@@H]12)O3,GI50,[1],1130 nM
same,TGI,[1],4130 nM
same,TGI,[2],13300 nM
same,GI50,[3],6000 nM
same,TGI,[3],19800 nM
same,GI50,[4],658 nM
same,TGI,[4],1430 nM
same,TGI,[5],5340 nM
same,GI50,[6],1100 nM
same,TGI,[6],3800 nM
same,GI50,[7],778 nM
same,TGI,[7],2920 nM
same,GI50,[8],676 nM
same,TGI,[8],1570 nM
same,GI50,[9],1500 nM
same,TGI,[9],5580 nM
same,TGI,[10],8360 nM
same,GI50,[11],4640 nM
same,TGI,[11],9070 nM
same,GI50,[12],631 nM
same,TGI,[12],1490 nM
same,GI50,[13],661 nM
same,TGI,[13],1770 nM
same,GI50,[14],911 nM
same,TGI,[14],2400 nM
same,GI50,[15],6770 nM
same,TGI,[15],19200 nM
same,GI50,[16],1170 nM
same,TGI,[16],5150 nM
same,GI50,[17],8010 nM
same,TGI,[17],> 32500 nM
same,GI50,[18],1010 nM
same,TGI,[18],3710 nM
same,GI50,[19],3940 nM
same,TGI,[19],9170 nM
same,GI50,[20],955 nM
same,TGI,[20],4790 nM
same,GI50,[21],997 nM
same,TGI,[21],4120 nM
same,GI50,[22],1300 nM
same,TGI,[22],7040 nM
same,TGI,[23],5330 nM
same,GI50,[24],1120 nM
same,TGI,[24],5550 nM
same,GI50,[25],1700 nM
same,TGI,[25],6990 nM
same,GI50,[26],1500 nM
same,TGI,[26],10200 nM
same,GI50,[27],857 nM
same,TGI,[27],2880 nM
same,GI50,[28],1160 nM
same,TGI,[28],4330 nM
same,GI50,[29],1520 nM
same,TGI,[29],6540 nM
same,GI50,[30],7040 nM
same,TGI,[30],> 32500 nM
same,GI50,[31],545 nM
same,TGI,[31],1210 nM
same,GI50,[32],1060 nM
same,TGI,[32],> 32500 nM
same,TGI,[33],2840 nM
same,GI50,[34],1800 nM
same,TGI,[34],6230 nM
same,GI50,[35],1670 nM
same,TGI,[35],7810 nM
same,GI50,[36],1000 nM
same,TGI,[36],5890 nM
same,GI50,[37],4100 nM
same,TGI,[37],12100 nM
same,GI50,[38],867 nM
same,TGI,[38],2370 nM
same,GI50,[39],648 nM
same,TGI,[39],1580 nM
same,GI50,[40],5000 nM
same,TGI,[40],15400 nM
same,GI50,[41],5520 nM
same,TGI,[41],13400 nM
same,GI50,[42],1440 nM
same,TGI,[42],6360 nM
same,GI50,[43],1300 nM
same,TGI,[43],7150 nM
same,GI50,[44],1090 nM
same,TGI,[44],4600 nM
same,GI50,[45],2410 nM
same,TGI,[45],9160 nM
same,GI50,[46],10500 nM
same,TGI,[46],> 32500 nM
same,TGI,[47],12500 nM
same,TGI,[48],> 32500 nM
same,GI50,[49],2370 nM
same,TGI,[49],27100 nM
same,GI50,[50],594 nM
same,TGI,[50],3740 nM
same,GI50,[51],946 nM
same,TGI,[51],2610 nM
same,TGI,[52],1990 nM
same,GI50,[53],3370 nM
same,TGI,[53],8690 nM
same,GI50,[54],685 nM
same,TGI,[54],4440 nM
same,GI50,[55],748 nM
same,TGI,[55],2400 nM
same,GI50,[56],896 nM
same,TGI,[56],4000 nM

# — PubChem BioAssay (NCI)
